{
  "source": "patent US20100021940A1",
  "about": "“Method for Determining the Activity of a Protease in a Sample” (ASTRAZENECA AB, priority 2006, published 2010)",
  "test_system": "MMP14",
  "experiment": "Activity of purified MMP on substrate (reporter release)",
  "format": "biochemical, human",
  "conditions": "30 μM substrate; MMP Conc. 4.8 nM; AZL0078",
  "source_text": "In order to confirm the specificity of the substrates for various MMPs, standard enzymatic assays were adapted to monitor the release of reporter. The reporter was either analysed by a LC-MS method as described in Example 3a, or by a LC-UV method as described in Example 4.\nRecombinant human MMP14 catalytic domain may be expressed and purified as described by Parkar A. A. et al, (2000), Protein Expression and Purification, 20, 152. The purified enzyme can be used to monitor activity of substrates as follows: MMP14 (10 ng/ml final […]) in assay buffer (0.1M “Tris-HCl” (trade mark) buffer, pH 7.5 containing 0.1M NaCl, 20 mM CaCl2, 0.020 mM ZnCl and 0.05% (w/v) “Brij 35” (trade mark) detergent) in the presence or absence of inhibitors. Activity is determined by measuring the release of reporter 4-nitroaniline by the using the method in Example 3a.",
  "data": [
    {"smiles": "COC(=O)CCNC(=O)[C@H](CC(C)C)NC(=O)[C@@H](NC(=O)CNC(=O)[C@H](CC(C)C)NC(=O)[C@@H]1CCCN1C(C)=O)Nc1ccc([N+](=O)[O-])cc1", "note": "[Example 1.1, Methyl 1-acetyl-L-prolyl-L-leucylglycyl-α-R-(4-nitrophenylamino)-glycyl-L-leucyl-β-alaninate]", "values": [
      {"measurement": "Activity", "result": 1.0, "unit": "units/s"}
    ]}
  ]
}
